Data as given in ChEMBL document CHEMBL5154877, “Novel Sphingosine Kinase 1 Inhibitor Suppresses Growth of Solid Tumor and Inhibits the Lung Metastasis of Triple-Negative Breast Cancer” (J Med Chem, 2022).
Activity calls are given as the source filed them. No cut-off for these calls is given here.

Legend:
MDA-MB-231 [1] = assay: Induction of apoptosis in human MDA-MB-231 cells assessed as viable cells at 10 uM incubated for 48 hrs by Annexin V-FITC/PI staining based flow cytometry (reference value: 94.3 %); assay type: functional; conditions: read-out: Activity
HT-29 [2] = assay: Induction of cell cycle arrest at G0/G1 phase in human HT-29 cells assessed as decrease in p-Rb expression at 10 to 30 uM incubated for 24 hrs by Western blot analysis; assay type: functional, cell-based; conditions: dose 10-30 µM
HT-29 [3] = assay: Induction of cell cycle arrest in human HT-29 cells assessed as accumulation at G0/G1 phase at 10 uM incubated for 24 hrs by PI staining based flow cytometry; assay type: functional
MDA-MB-231 [4] = assay: Antimetastatic activity against human MDA-MB-231 cells […] assessed as inhibition of NF-kappaB p65 phosphorylation at 30 uM incubated for 2 to 12 hrs by Western blot analysis; assay type: functional, cell-based; conditions: time 2-12 hrs
HT-29 [5] = assay: Induction of cell cycle arrest at G0/G1 phase in human HT-29 cells assessed as reduction in cyclinA expression at 10 to 30 uM incubated for 24 hrs by Western blot analysis; assay type: functional, cell-based; conditions: dose 10-30 µM
HT-29 [6] = assay: Induction of cell cycle arrest at G0/G1 phase in human HT-29 cells assessed as reduction in cyclinD1 expression at 10 to 30 uM incubated for 24 hrs by Western blot analysis; assay type: functional, cell-based; conditions: dose 10-30 µM
[7] = Tmax in mouse at 20 mg/kg, po; assay type: ADME, organism-based; conditions: in vivo
HT-29 [8] = assay: Induction of cell cycle arrest at G0/G1 phase in human HT-29 cells assessed as reduction in CDK6 expression at 10 to 30 uM incubated for 24 hrs by Western blot analysis; assay type: functional, cell-based; conditions: dose 10-30 µM
[9] = AUClast in mouse at 20 mg/kg, po; assay type: ADME, organism-based; design: time 0 - last, dose 20 mg/kg, route po; conditions: in vivo
MDA-MB-231 [10] = assay: Induction of apoptosis in human MDA-MB-231 cells assessed as necrotic cells at 30 uM incubated for 48 hrs by Annexin V-FITC/PI staining based flow cytometry (reference value: 1.42 %); assay type: functional
MDA-MB-231 [11] = assay: Induction of apoptosis in human MDA-MB-231 cells assessed as late apoptotic cells at 30 uM incubated for 48 hrs by Annexin V-FITC/PI staining based flow cytometry (reference value: 1.96 %); assay type: functional
MDA-MB-231 [12] = assay: Antimetastatic activity against human MDA-MB-231 cells xenografted in BALB/c mouse assessed as decrease in plasma S1P levels at 100 mg/kg, ip for 28 days; assay type: functional, organism-based; conditions: time 28.0 day
MDA-MB-231 [13] = assay: Induction of apoptosis in human MDA-MB-231 cells assessed as late apoptotic cells at 10 uM incubated for 48 hrs by Annexin V-FITC/PI staining based flow cytometry (reference value: 1.96 %); assay type: functional
MDA-MB-231 [14] = assay: Antimigratory activity against human MDA-MB-231 cells assessed as reduction in cell migration at 40 uM incubated for 8 hrs by crystal violet staining microscopy based transwell migration assay; assay type: functional
[15] = AUClast in mouse at 2 mg/kg, iv; assay type: ADME, organism-based; design: time 0 - last, dose 2 mg/kg, route iv; conditions: in vivo
MDA-MB-231 [16] = assay: Antimetastatic activity against human MDA-MB-231 cells […] assessed as upregulation of phosphorylated beta-catenin at 30 uM incubated for 2 to 12 hrs by western blot analysis; assay type: functional, cell-based; conditions: time 2-12 hrs
MDA-MB-231 [17] = assay: Antimetastatic activity against human MDA-MB-231 cells […] assessed as downregulation of MMP-9 at 30 uM incubated for 2 to 12 hrs by western blot analysis; assay type: functional, cell-based; conditions: time 2-12 hrs
[18] = Half life in mouse at 20 mg/kg, po; assay type: ADME, organism-based; conditions: in vivo
HT-29 [19] = assay: Antitumor activity against human HT-29 cells xenografted in BALB/c mouse assessed as tumor growth inhibition at 50 mg/kg/day, ip for 3 weeks and measured every 3 days by caliper method; assay type: functional, organism-based
[20] = Oral bioavailability in mouse at 20 mg/kg; assay type: ADME, organism-based; conditions: in vivo
[21] = Cmax in mouse at 20 mg/kg, po; assay type: ADME, organism-based; design: dose 20 mg/kg, route po; conditions: in vivo
[22] = Toxicity in BALB/c mouse xenografted with human HT-29 cells assessed as change in body weight at 50 mg/kg/day, ip for 3 weeks and measured every 3 days; assay type: organism-based; conditions: in vivo, 504 h
MDA-MB-231 [23] = assay: Antimigratory activity against human MDA-MB-231 cells assessed as inhibition of cell migration in human MDA-MB-231 cells at 40 uM incubated for 15 hrs by wound healing assay; assay type: functional, cell-based
[24] = Clearance in mouse at 2 mg/kg, iv; assay type: ADME, organism-based; conditions: in vivo
HT-29 [25] = assay: Induction of cell cycle arrest at G1 phase in human HT-29 cells assessed as increase in P21 expression at 30 uM incubated for 24 hrs by Western blot analysis; assay type: functional, cell-based
MDA-MB-231 [26] = assay: Induction of apoptosis in human MDA-MB-231 cells assessed as early apoptotic cells at 30 uM incubated for 48 hrs by Annexin V-FITC/PI staining based flow cytometry (reference value: 2.35 %); assay type: functional
[27] = Half life in mouse at 2 mg/kg, iv; assay type: ADME, organism-based; conditions: in vivo
[28] = Toxicity in BALB/c mouse xenografted with human MDA-MB-231 cells assessed as body weight change at 100 mg/kg, ip administrated for 28 days; assay type: organism-based; conditions: in vivo, 672 h, time 28 day
[29] = Toxicity in BALB/c mouse xenografted with human MDA-MB-231 cells assessed as change in body weight at 50 mg/kg/day, ip for 3 weeks and measured every 3 days; assay type: organism-based; conditions: in vivo, 504 h
MDA-MB-231 [30] = assay: Induction of apoptosis in human MDA-MB-231 cells assessed as necrotic cells at 10 uM incubated for 48 hrs by Annexin V-FITC/PI staining based flow cytometry (reference value: 1.42 %); assay type: functional
MDA-MB-231 [31] = assay: Induction of apoptosis in human MDA-MB-231 cells assessed as early apoptotic cells at 10 uM incubated for 48 hrs by Annexin V-FITC/PI staining based flow cytometry (reference value: 2.35 %); assay type: functional
HT-29 [32] = assay: Induction of cell cycle arrest at G0/G1 phase in human HT-29 cells assessed as reduction in cyclinE1 expression at 10 to 30 uM incubated for 24 hrs by Western blot analysis; assay type: functional, cell-based; conditions: dose 10-30 µM
[33] = Half life in mouse at 10 mg/kg, ip; assay type: ADME, organism-based; conditions: in vivo
MDA-MB-231 [34] = assay: Induction of apoptosis in human MDA-MB-231 cells assessed as viable cells at 30 uM incubated for 48 hrs by Annexin V-FITC/PI staining based flow cytometry (reference value: 94.3 %); assay type: functional; conditions: read-out: Activity
MDA-MB-231 [35] = assay: Antimetastatic activity against human MDA-MB-231 cells […] assessed as inhibition of FSCN1 phosphorylation at 30 uM incubated for 2 to 12 hrs by western blot analysis; assay type: functional, cell-based; conditions: time 2-12 hrs

**Q.** For `Cc1cc(CS(=O)(=O)c2ccccc2)cc(OCc2ccc(CN3CCC[C@@H]3CO)cc2)c1`, which viability at 10 µM (MDA-MB-231 [1]) is on record?
**A.** 85.8%

**Q.** What about the Activity (HT-29 [2]) of the same molecule?
**A.** Active

**Q.** And the Activity (HT-29 [3])?
**A.** Active

**Q.** And the Activity (MDA-MB-231 [4])?
**A.** Active

**Q.** And the Activity (HT-29 [5])?
**A.** Active

**Q.** What about the Activity (HT-29 [6]) of the same molecule?
**A.** Active

**Q.** And the Tmax [7]?
**A.** 15 min

**Q.** What about the Activity (HT-29 [8]) of the same molecule?
**A.** Active

**Q.** What about the AUC(0-t) [9] of the same molecule?
**A.** 32.3 ng·h/mL

**Q.** And the Activity (MDA-MB-231 [10])?
**A.** 1.99%

**Q.** And the Activity (MDA-MB-231 [11])?
**A.** 7.47%

**Q.** And the Activity (MDA-MB-231 [12])?
**A.** Active

**Q.** What about the Activity (MDA-MB-231 [13]) of the same molecule?
**A.** 7.11%

**Q.** What about the Activity (MDA-MB-231 [14]) of the same molecule?
**A.** Active

**Q.** And the AUC(0-t) [15]?
**A.** 168 ng·h/mL

**Q.** What about the Activity (MDA-MB-231 [16]) of the same molecule?
**A.** Active

**Q.** And the Activity (MDA-MB-231 [17])?
**A.** Active

**Q.** And the half-life [18]?
**A.** 258 min

**Q.** And the Activity (HT-29 [19])?
**A.** Active

**Q.** What about the bioavailability [20] of the same molecule?
**A.** 1.92%

**Q.** What about the Cmax [21] of the same molecule?
**A.** 16.8 ng/mL

**Q.** What about the Activity [22] of the same molecule?
**A.** Non-Toxic

**Q.** What about the Activity (MDA-MB-231 [23]) of the same molecule?
**A.** Active

**Q.** And the clearance [24]?
**A.** 207 mL/min/kg

**Q.** What about the Activity (HT-29 [25]) of the same molecule?
**A.** Active

**Q.** And the Activity (MDA-MB-231 [26])?
**A.** 25.2%

**Q.** What about the half-life [27] of the same molecule?
**A.** 60.6 min

**Q.** What about the Activity [28] of the same molecule?
**A.** Non-Toxic

**Q.** What about the Activity [29] of the same molecule?
**A.** Non-Toxic

**Q.** And the Activity (MDA-MB-231 [30])?
**A.** 2.22%

**Q.** And the Activity (MDA-MB-231 [31])?
**A.** 4.89%

**Q.** And the Activity (HT-29 [32])?
**A.** Active

**Q.** What about the half-life [33] of the same molecule?
**A.** 72 min

**Q.** What about the viability at 30 µM (MDA-MB-231 [34]) of the same molecule?
**A.** 65.4%

**Q.** And the Activity (MDA-MB-231 [35])?
**A.** Active
